This is an account of results in patent US20260138976A1 (Hoffmann-La Roche Inc., priority 2022, published 2026).

The structures appear in SMILES notation.

The subject of test [1] is primary human T-cells. Put plainly: Proliferation assay (5 days, CellTiter-Glo, CD3-stimulated T-cells). The class given is cell-based. The conditions noted are these: for Emax proliferation (% activation): CD3 condition, normalised to DMSO (neutral) and 20 μM reference compound A1 = 100%; for EC50: Homo sapiens, T-cell, 120 h, CD3-stimulated primary human T-cells, 5 days, CellTiter-Glo, fitted sigmoidal curve, read-out: Tcell Proliferation CD3 EC50. The essentials: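 Expanded primary human T-cells, 100 k cells/well, were stimulated with plate-coated CD3 antibody (donor-titrated) and given compound in a 5 or 6 pt dose response from 20 μM or 10 μM final top, 0.2% DMSO final. ATP was read by CellTiter-Glo after 5 days. EC50 and Emax were reported as % of 20 μM reference compound A1.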
For orientation: ATP-based viability assays read luminescence as a measure of living cells.

Test [2] relates to primary human T-cells. In words: IL2 secretion measurements (24 h, CD3-stimulated T-cells, PBS counter screen). The class given is cell-based. The conditions noted are these: for Emax IL2 (% activation): CD3 condition, normalised to DMSO (neutral) and 20 μM reference compound A1 = 100%; for EC50: Homo sapiens, T-cell, CD3-stimulated primary human T-cells, IL2 secretion, fitted sigmoidal curve, read-out: Tcell IL2 CD3 EC50. Put shortly: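 Expanded primary human T-cells (100k/well) were plated on anti-CD3-coated or PBS-only plates with compound in a 5–6 point dose response (top 20 or 10 μM final, 3.333-fold, 0.2% DMSO). IL-2 in 24 h supernatants was quantified by ProQuantum immunoassay or ELISA. Values were normalized to DMSO and 20 μM reference compound A1 (100%), giving EC50 and Emax.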
(Counterscreens check selectivity or assay interference.)

With `CC(O)(c1nnc(-c2ccc3c(c2)N(Cc2ccc(-c4noc(C5CC5)n4)cc2)C(=O)[C@@H](N)CS3(=O)=O)o1)C(F)(F)F` (stereo partly drawn) [Example 170], in test [1], the “Emax proliferation (% activation)” value was 89 % activation and the EC50 was determined as 1010 nM. In test [2], the “Emax IL2 (% activation)” value is 79 % activation and the EC50 was determined as 8550 nM.
As for `COC(=O)N1CC(c2nnc(-c3ccc4c(c3)N(Cc3ccc(-c5ccc(C(F)(F)F)cc5)nc3)C(=O)[C@@H](N)CS4(=O)=O)o2)CC(F)(F)C1` (stereo partly drawn) [Example 57, methyl 3,3-difluoro-5-[5-[(3R)-3-amino-1,1,4-trioxo-5-[[6-[4-(trifluoromethyl)phenyl]-3-pyridyl]methyl]-2,3-dihydro-1λ^6,5-benzothiazepin-7-yl]-1,3,4-oxadiazol-2-yl]piperidine-1-carboxylate], in test [1], the “Emax proliferation (% activation)” value was determined as 181 % activation and the EC50 amounted to 567 nM. Also, in test [2], the “Emax IL2 (% activation)” value amounted to 100 % activation and the EC50 is 652 nM.
Take `CC(C)(C#N)c1nnc(-c2ccc3c(c2)N(Cc2ccc(-c4cnc(OC(F)(F)F)cn4)cc2)C(=O)[C@@H](N)CS3(=O)=O)o1` [Example 112]: in test [1], the “Emax proliferation (% activation)” value worked out at 116 % activation and the EC50 worked out at 292 nM. Moreover, in test [2], the “Emax IL2 (% activation)” value is reported as 139 % activation and the EC50 came out at 832 nM.
